Measurements taken from the CheMixHub viscosity set.
“And” between values parts separate entries of the source, which are not always exact repeats. Identical values can stand only once. ± gives the uncertainty stated by the source.

Experiment: xn = mol fraction of the nth substance listed

OC[C@H]1O[C@H](O[C@H]2[C@H](O)[C@@H](O)C(O)O[C@@H]2CO)[C@H](O)[C@@H](O)[C@@H]1O (stereo not given in full) + O
viscosity
Conditions | 293.15 K | 298.15 K | 303.15 K | 308.15 K | 313.15 K | 318.15 K
100 kPa, x1 = 0.0009465 | – | – | – | 0.759 ± 0.076 mPa·s | – | 0.627 ± 0.063 mPa·s
100 kPa, x1 = 0.000975 | – | 0.942 ± 0.021 mPa·s | – | 0.763 ± 0.021 mPa·s | – | 0.628 ± 0.02 mPa·s
100 kPa, x1 = 0.001093 | – | 0.948 ± 0.095 mPa·s | – | 0.765 ± 0.077 mPa·s | – | 0.632 ± 0.063 mPa·s
100 kPa, x1 = 0.001306 | – | 0.96 ± 0.096 mPa·s | – | 0.773 ± 0.077 mPa·s | – | 0.639 ± 0.064 mPa·s
100 kPa, x1 = 0.00134 | – | 0.96 ± 0.021 mPa·s | – | 0.776 ± 0.021 mPa·s | – | 0.639 ± 0.021 mPa·s
100 kPa, x1 = 0.001467 | – | 0.968 ± 0.097 mPa·s | – | – | – | –
100 kPa, x1 = 0.00157 | – | 0.972 ± 0.021 mPa·s | – | 0.786 ± 0.021 mPa·s | – | 0.645 ± 0.021 mPa·s
100 kPa, x1 = 0.001596 | – | 0.975 ± 0.098 mPa·s | – | 0.785 ± 0.079 mPa·s | – | 0.648 ± 0.065 mPa·s
100 kPa, x1 = 0.001818 | – | 0.985 ± 0.021 mPa·s | – | 0.794 ± 0.021 mPa·s | – | 0.655 ± 0.021 mPa·s
100 kPa, x1 = 0.002168 | – | – | – | 0.804 ± 0.021 mPa·s | – | 0.667 ± 0.021 mPa·s
100 kPa, x1 = 0.002215 | – | – | – | 0.81 ± 0.021 mPa·s | – | 0.669 ± 0.021 mPa·s
100 kPa, x1 = 0.002657 | – | 1.029 ± 0.1 mPa·s | – | 0.827 ± 0.083 mPa·s | – | 0.682 ± 0.068 mPa·s
101 kPa, x1 = 0.0009 | 1.022 ± 0.013 mPa·s | 0.9029 ± 0.011 mPa·s | 0.8044 ± 0.01 mPa·s | 0.7221 ± 0.0093 mPa·s | 0.6529 ± 0.0089 mPa·s | –
101 kPa, x1 = 0.00099 | 1.025 ± 0.013 mPa·s | 0.9064 ± 0.011 mPa·s | 0.8074 ± 0.01 mPa·s | 0.724 ± 0.0093 mPa·s | 0.6549 ± 0.0089 mPa·s | –
101 kPa, x1 = 0.0011 | 1.03 ± 0.016 mPa·s | 0.9093 ± 0.012 mPa·s | 0.8099 ± 0.011 mPa·s | 0.7266 ± 0.0098 mPa·s | 0.6564 ± 0.009 mPa·s | –
101 kPa, x1 = 0.0012 | 1.033 ± 0.017 mPa·s | 0.9119 ± 0.012 mPa·s | 0.812 ± 0.011 mPa·s | 0.7287 ± 0.0099 mPa·s | 0.6586 ± 0.009 mPa·s | –
101 kPa, x1 = 0.0013 | 1.037 ± 0.013 mPa·s and 1.041 ± 0.019 mPa·s | 0.9159 ± 0.012 mPa·s and 0.9193 ± 0.012 mPa·s | 0.8144 ± 0.011 mPa·s and 0.8178 ± 0.011 mPa·s | 0.7315 ± 0.0098 mPa·s and 0.7341 ± 0.0099 mPa·s | 0.6606 ± 0.01 mPa·s and 0.6619 ± 0.0094 mPa·s | –
101 kPa, x1 = 0.0014 | 1.045 ± 0.014 mPa·s | 0.9231 ± 0.012 mPa·s | 0.8202 ± 0.011 mPa·s | 0.7362 ± 0.0098 mPa·s | 0.6645 ± 0.0091 mPa·s | –
101 kPa, x1 = 0.0015 | 1.05 ± 0.014 mPa·s | 0.9262 ± 0.012 mPa·s | 0.823 ± 0.011 mPa·s | 0.7383 ± 0.0098 mPa·s | 0.6669 ± 0.0091 mPa·s | –
101 kPa, x1 = 0.0016 | 1.054 ± 0.015 mPa·s | – | 0.8261 ± 0.011 mPa·s | 0.7406 ± 0.0098 mPa·s | 0.6687 ± 0.0088 mPa·s | –
101 kPa, x1 = 0.0018 | 1.062 ± 0.014 mPa·s | 0.9361 ± 0.014 mPa·s | 0.833 ± 0.013 mPa·s | 0.7449 ± 0.011 mPa·s | 0.6724 ± 0.0091 mPa·s | –
101.3 kPa, x1 = 0.000724 | – | – | – | 0.751 ± 0.04 mPa·s | – | –
101.3 kPa, x1 = 0.00107 | – | 0.948 ± 0.041 mPa·s | – | 0.766 ± 0.04 mPa·s | – | 0.633 ± 0.04 mPa·s
101.3 kPa, x1 = 0.00143 | – | 0.964 ± 0.041 mPa·s | – | 0.779 ± 0.04 mPa·s | – | 0.643 ± 0.04 mPa·s
101.3 kPa, x1 = 0.00179 | – | 0.984 ± 0.041 mPa·s | – | 0.794 ± 0.04 mPa·s | – | 0.655 ± 0.04 mPa·s
101.3 kPa, x1 = 0.002146 | – | – | – | 0.809 ± 0.04 mPa·s | – | –
101.3 kPa, x1 = 0.002501 | – | 1.019 ± 0.041 mPa·s | – | 0.819 ± 0.04 mPa·s | – | 0.678 ± 0.04 mPa·s
101.3 kPa, x1 = 0.002851 | – | 1.037 ± 0.041 mPa·s | – | 0.836 ± 0.04 mPa·s | – | 0.688 ± 0.04 mPa·s
101.3 kPa, x1 = 0.003177 | – | 1.053 ± 0.041 mPa·s | – | 0.848 ± 0.04 mPa·s | – | 0.698 ± 0.04 mPa·s
